Experimental data as given in article PMC6117024, “NOP receptor pharmacological profile – A dynamic mass redistribution study” (PLoS ONE, 2018).

Tests used:
CHO cells = assay: DMR in wild type CHO cells; conditions: for DMR response, CHO: CHO cells, pm ± sem
NOP receptor = conditions: cited from earlier work
Text: This is in general in line with literature reports (see Table 2 of [3] that summarizes the action of these compounds in various assays/preparations at human recombinant and rodent native NOP receptors). However, there are some aspects that deserve attention.

human NOP receptor [1] = target: T1, human NOP receptor (Homo sapiens, UniProt P41146); assay: DMR assay in CHONOP cells, agonist effects; conditions: for Emax: DMR maximal effect; for DMR response, CHONOP: pm ± sem; for maximal effects compared with N/OFQ: DMR; for pEC50: DMR peak, at least 3 experiments in triplicate, inactive = no DMR response up to 1 μM, parentheses: CL95% (Fig 3)
human NOP receptor [2] = target: T1, human NOP receptor; assay type: cell-based; set-up: expressed in transfected cells; conditions: comparison N/OFQ and Ac-RYYRIK-NH2
human NOP receptor [3] = target: T1, human NOP receptor; assay: DMR assay in CHONOP cells, antagonism of agonist concentration response curve
human NOP receptor [4] = target: T1, human NOP receptor; assay: Classical Schild protocol, DMR in CHONOP cells
[5] = tested on: NOP receptor (transfected neurons); conditions: electrophysiology; cited from earlier work
[6] = tested on: NOP receptor (control neurons); conditions: electrophysiology; cited from earlier work
[7] = target: human Nociceptin/Orphanin FQ (N/OFQ) peptide NOP receptor (human) (UniProt P41146)
mu opioid receptor = mu opioid receptor (UniProt P35372)
[8] = target: human Nociceptin/Orphanin FQ (N/OFQ) peptide NOP receptor (human) (UniProt P41146); remark: listed apart in the source
[9] = 1 μM, 37°C, * p < 0.05 vs buffer (one-way ANOVA, Dunnett's)
[10] = CHONOP cells, 1 μM, 37°C, * p < 0.05 vs buffer (one-way ANOVA, Dunnett's)
[11] = CHONOP cells, 100 μM, * p < 0.05 vs buffer

Chain of human Nociceptin/Orphanin FQ (N/OFQ) peptide NOP receptor (human) (P41146 whole entry): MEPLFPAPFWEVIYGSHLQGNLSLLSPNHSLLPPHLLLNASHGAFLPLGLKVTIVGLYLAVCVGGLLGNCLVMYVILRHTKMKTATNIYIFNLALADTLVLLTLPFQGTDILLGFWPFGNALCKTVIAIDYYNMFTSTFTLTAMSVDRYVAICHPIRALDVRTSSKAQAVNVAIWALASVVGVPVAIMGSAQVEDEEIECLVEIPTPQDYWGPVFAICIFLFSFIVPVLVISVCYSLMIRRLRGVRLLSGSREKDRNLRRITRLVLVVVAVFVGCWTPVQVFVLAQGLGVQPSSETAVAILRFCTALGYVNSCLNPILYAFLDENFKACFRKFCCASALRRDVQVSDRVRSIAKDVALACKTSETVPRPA
T1 sequence (P41146 whole entry): as above
Chain of mu opioid receptor (P35372 whole entry): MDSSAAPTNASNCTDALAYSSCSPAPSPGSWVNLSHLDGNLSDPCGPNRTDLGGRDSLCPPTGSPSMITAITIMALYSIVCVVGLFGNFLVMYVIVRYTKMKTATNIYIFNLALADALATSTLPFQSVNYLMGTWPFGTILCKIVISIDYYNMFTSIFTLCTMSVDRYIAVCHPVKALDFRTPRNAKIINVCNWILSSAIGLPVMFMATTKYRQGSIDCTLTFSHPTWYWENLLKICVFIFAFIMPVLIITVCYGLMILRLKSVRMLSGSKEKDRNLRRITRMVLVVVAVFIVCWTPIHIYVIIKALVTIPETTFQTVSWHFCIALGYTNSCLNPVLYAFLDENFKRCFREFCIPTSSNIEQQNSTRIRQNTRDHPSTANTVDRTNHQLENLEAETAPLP

CC(C)C1CCC(N2CCC(N3C(=O)C(=O)c4ccccc43)CC2)CC1 (centres unmarked) [AT-090]
DMR response, CHO (CHO cells; [9]): 21±3 pm | efficacy vs N/OFQ, GTPγS binding (NOP receptor): significantly lower efficacy than N/OFQ | efficacy vs N/OFQ, NOP/G protein interaction (NOP receptor): significantly lower efficacy than N/OFQ | intrinsic activity (α) (human NOP receptor [1]): 1.23 | Emax (human NOP receptor [1]; CHONOP cells): 252 | DMR response, CHONOP (human NOP receptor [1]; [10]): 252±15 ^* pm | maximal effects compared with N/OFQ (human NOP receptor [1]; CHONOP): not statistically different to those of N/OFQ

Nc1ncnc2c1ncn2[C@@H]1O[C@H](COP(=O)(O)OP(=O)(O)OP(=O)(O)O)[C@@H](O)[C@H]1O [ATP]
DMR response, CHO (CHO cells; 100 μM, * p < 0.05 vs buffer): 177±15 ^* pm | DMR response, CHONOP (human NOP receptor [1]; [11]): 185±12 ^* pm

CC[C@H](C)[C@H](NC(=O)[C@H](CCCNC(=N)N)NC(=O)[C@H](Cc1ccc(O)cc1)NC(=O)[C@H](Cc1ccc(O)cc1)NC(=O)[C@H](CCCNC(=N)N)NC(C)=O)C(=O)N[C@@H](CCCCN)C(N)=O [Ac-RYYRIK-NH2]
sensitivity of DMR response to PTX (human NOP receptor [2]): equally sensitive to PTX | DMR response, CHO (CHO cells; [9]): 17±8 pm | sensitivity of DMR response to SB-612111 (human NOP receptor [3]; comparison N/OFQ and Ac-RYYRIK-NH2): equally sensitive to PTX and to the NOP selective antagonist SB-612111 | efficacy vs N/OFQ, GTPγS binding (NOP receptor): significantly lower efficacy than N/OFQ | efficacy vs N/OFQ, NOP/G protein interaction (NOP receptor): significantly lower efficacy than N/OFQ | intrinsic activity (α) (human NOP receptor [1]): 0.89 | Emax (human NOP receptor [1]; CHONOP cells): 182 | DMR response, CHONOP (human NOP receptor [1]; [10]): 182±11 ^* pm | maximal effects compared with N/OFQ (human NOP receptor [1]; CHONOP): not statistically different to those of N/OFQ | negative DMR signal (human NOP receptor [1]; after 1000 sec, in some but not all experiments): concentration dependent negative signal after 1000 sec

C=C[C@@]1(C)CC(=O)[C@]2(O)[C@@]3(C)[C@@H](O)CCC(C)(C)[C@@H]3[C@H](O)[C@H](OC(C)=O)[C@@]2(C)O1 [FSK]
DMR response, CHO (CHO cells; 100 μM, * p < 0.05 vs buffer): -172±23 ^* pm | DMR response, CHONOP (human NOP receptor [1]; [11]): -164±15 ^* pm

C=CCN1CC[C@]23c4c5ccc(O)c4O[C@H]2C(=O)CC[C@@]3(O)[C@H]1C5 [Naloxone]
DMR response, CHO (CHO cells; [9]): 23±5 pm

O=C1NCN(c2ccccc2)C12CCN(C1Cc3cccc4cccc1c34)CC2 (centres unmarked) [Ro 65–6570]
activity in wild type CHO cells (CHO cells; 10 μM): exhibited a DMR response in wild type CHO cells | DMR response, CHO (CHO cells; [9]): 23±8 pm

Cc1cccc2c1CC[C@H](CN1CCC(c3c(Cl)cccc3Cl)CC1)C[C@@H]2O [SB-612111, (-)-cis-1-methyl-7-[[4-(2,6-dichlorophenyl)piperidin-1-yl]methyl]-6,7,8,9-tetrahy dro-5H-benzocyclohepten-5-ol]
DMR response, CHO (CHO cells; [9]): 26±3 pm | effect on N/OFQ maximal effects (Schild) (human NOP receptor [4]; 10 nM–1 μM): without significantly affecting its maximal effects | Schild slope (human NOP receptor [4]; vs N/OFQ, Schild plot): ~1 | effect per se in CHONOP cells (human NOP receptor [1]; CHONOP cells): did not produce any effect per se | pEC50 (human NOP receptor [1]; CHONOP cells, 37°C): inactive | DMR response, CHONOP (human NOP receptor [1]; [10]): -10±9 pm

CCn1c(=O)n(C2=C(CO)CN(CC3CCCCCCC3)CC2)c2ccccc21 [Trap-101]
activity in NOP transfected neurons [5]: inverse agonists | activity in control neurons [6]: pure antagonists

C[C@H](NC(=O)CNC(=O)[C@@H](NC(=O)[C@H](Cc1ccccc1)NC(=O)CNC(=O)CNC(=O)CNCc1ccccc1)[C@@H](C)O)C(=O)N[C@@H](CCCNC(=N)N)C(=O)N[C@@H](CCCCN)C(=O)N[C@@H](CO)C(=O)N[C@@H](C)C(=O)N[C@@H](CCCNC(=N)N)C(=O)N[C@@H](CCCCN)C(=O)N[C@@H](CCCNC(=N)N)C(=O)N[C@@H](CCCCN)C(=O)N[C@@H](CC(N)=O)C(=O)N[C@@H](CCC(N)=O)C(N)=O [UFP-101, [Nphe1,Arg14,Lys15]nociceptin-NH2]
Kb (human NOP receptor [3]): 25.1 nM | pEC50 (human NOP receptor [1]; CHONOP cells, 37°C): crc incomplete | stimulatory effect per se (human NOP receptor [1]; CHONOP, % of the maximal effects of N/OFQ): ~20%

Ac-RYYRIK-NH2 (peptide)
DMR response at 1 μM, CHONOP cells [7]: 182 pm

Dermorphin (peptide)
pEC50 of the DMR response, CHO cells expressing the mu opioid receptor (mu opioid receptor): 8.59 -log10(M)

PWT2-N/OFQ (peptide)
DMR response at 0.1 μM, CHONOP cells [7]: 198 pm | intrinsic activity α (Emax relative to N/OFQ), DMR, CHONOP cells (relative to N/OFQ) [8]: 0.97 | pEC50 of the DMR response (peak), CHONOP cells, tested up to 0.1 μM [8]: 8 -log10(M)

UFP-101 (peptide)
DMR response at 1 μM, CHONOP cells (not marked as different from buffer) [7]: 40 pm | pKB (antagonist potency): rightward shift by 1 μM UFP-101 of the concentration response curve to N/OFQ at the NOP receptor, DMR, CHONOP cells [8]: 7.6 -log10(M)

UFP-112 (peptide)
DMR response at 1 μM, CHONOP cells [7]: 248 pm | intrinsic activity α (Emax relative to N/OFQ), DMR, CHONOP cells (relative to N/OFQ) [8]: 1.21 | pEC50 of the DMR response (peak), CHONOP cells [8]: 8.66 -log10(M)

[Arg^14,Lys^15]N/OFQ (peptide)
DMR response at 1 μM, CHONOP cells [7]: 271 pm

[F/G]N/OFQ(1–13)-NH2 (peptide)
DMR response at 1 μM, CHONOP cells [7]: 200 pm | intrinsic activity α (Emax relative to N/OFQ), DMR, CHONOP cells (relative to N/OFQ) [8]: 0.98 | pEC50 of the DMR response (peak), CHONOP cells [8]: 8.06 -log10(M)

[Nphe^1]N/OFQ(1–13)-NH2 (peptide)
DMR response at 1 μM, CHONOP cells [7]: 180 pm
